Assay results as given in PubChem BioAssay AID1159560 (GlaxoSmithKline (GSK), 2015).
Activity calls are given as the source filed them. The rule behind the calls is not given here.

What follows are molecules tested on Leishmania donovani growth inhibition (assay: antileishmanial activity against L. donovani parasites (AID 1159560);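 note: parasites exposed to compound for 72 h before the viability read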).

SMILES	IC50
COc1ccc(C(=O)[C@H]2C[C@@H]2CN(Cc2ccccn2)Cc2ccccn2)cc1	7.9 µM
CCOc1ccc(CN(C)Cc2nc(N)nc(Nc3ccc(C)cc3)n2)cc1	32 µM
O=C1COC(c2ccccc2)(c2ccccc2)CN1C1CCN(Cc2ccc(-n3ccnc3)cc2)CC1	32 µM
O=C(C1CCCCC1)N1CCN(c2nnc(-c3ccccc3)c3ccccc23)CC1	> 50 µM (inactive)
Cc1cc(N(C)C)nc2ccc(Cc3cnc(N)nc3N)cc12	> 50 µM (inactive)
Cc1cn[nH]c1C1CCCN(Cc2nc3ccccc3n2C)C1 (configuration not stated)	16 µM
COc1ccc(C(=O)Nc2c(C)nn(COc3cccc(C(F)(F)F)c3)c2C)cc1	> 50 µM (inactive)
COc1ccc(C2CC(c3ccccc3Cl)=NN2C(=O)CNC(=O)C2CCC2)cc1 (configuration not stated)	> 50 µM (inactive)
COc1ccccc1C=CCN1C[C@H]2CCC[C@@H](C1)C2(O)c1cccnc1 (some centres not stated)	> 50 µM (inactive)
c1ccc(CNc2cccc3ccncc23)cc1	10 µM
COc1cc(C(C)C)c(S(C)(=O)=O)cc1C(=O)N1CCN(c2ccccc2Cl)CC1	5 µM
O=c1cc(NCCCNC2CCOc3c(I)cc(Cl)cc32)[nH]c2ccccc12 (configuration not stated)	32 µM
N#Cc1cnc(Nc2cccc(CCN3CCOCC3)c2)nc1Nc1ccccc1C(N)=O	2.5 µM
CCN(CC)c1nc(Nc2ccncc2)nc2ccccc12	0.79 µM
COc1ccc2nccc(NC(=O)C3(OC)CCN(CC(O)c4ccc5c(c4)OCCO5)CC3)c2n1 (configuration not stated)	10 µM
CCN(CC)S(=O)(=O)c1ccc(C)c(NC(=O)c2cc(Cl)c3c(c2)OCO3)c1	> 50 µM (inactive)
O=c1[nH]ccc2ccc(-c3ccncc3)cc12	> 50 µM (inactive)
COc1ccc(Nc2nc(-c3ccccn3)cs2)c(OC)c1	6.3 µM
CN(Cc1nc2ccccc2s1)C(=O)C=Cc1cc2ccccc2o1	50 µM
CC(C)C[C@H](NC(=O)c1ccc(-c2ccccc2)o1)C(=O)NC1(C#N)CC1	> 50 µM (inactive)
OCCCNc1nc(Nc2ccncc2)nc2ccccc12	40 µM
CCN(Cc1nc2ccc(C(=O)N3CCN(c4ncccn4)CC3)cc2[nH]1)C1CCCc2cccnc21 (configuration not stated)	5 µM

SMILES	IC50
Cc1cc(NC(=O)CC2CCCCC2)n(-c2nc3c(c(=O)[nH]2)CCC3)n1	0.032 µM
CCOc1ccc(OCC(=O)N2c3ccccc3CC2C(=O)NC)cc1 (configuration not stated)	> 50 µM (inactive)
CC(=O)Nc1ccc(-c2ccnc(Nc3cccc(C#N)c3)n2)cc1	40 µM
CC(=O)Nc1ccc(CN2CCC(N3CC(c4ccccc4)(c4ccccc4)OCC3=O)CC2)cc1	0.5 µM
CCCn1c(NC(=O)CCn2cc(Br)cn2)nc2ccccc21	10 µM
CN(Cc1cccnc1)Cc1ccc(N2CCN(C(=O)C3(c4ccc(Cl)cc4)CC3)CC2)nc1	32 µM
CC1CN(S(=O)(=O)c2ccc(NC(=O)c3cc(C4CC4)nc4c3cnn4C(C)C)cc2)CC(C)O1 (configuration not stated)	20 µM
COc1cc(Nc2nccc(Nc3onc(C)c3C)n2)cc(S(=O)(=O)C2CCOCC2)c1	40 µM
COc1cc(OC)cc(C(NS(=O)(=O)c2ccc(Cl)c(C(F)(F)F)c2)c2nccn2C)c1 (configuration not stated)	10 µM
CC(=O)NC1(c2ccccc2)CCN(CC(=O)Nc2ccccc2-c2ccccc2)CC1	20 µM
Cn1ccnc1-c1nc(NCc2ccccc2Cl)cc(C2CC2)n1	1.6 µM
Cc1c(CNC(=O)c2ccc(Cn3cc(Cl)c([N+](=O)[O-])n3)cc2)cnn1C	> 50 µM (inactive)
Cc1cc(C)n(-c2nc(NC(C)(C)C)nc(N3CCOCC3)n2)n1	6.3 µM
O=c1ccc2ccc(F)c3c2n1C[C@H]3CN1CCN(CC(O)c2cc3c(cn2)OCS3)CC1 (some centres not stated)	20 µM
O=C(COc1ccccc1)Nc1ccccc1C(=O)Nc1nccs1	> 50 µM (inactive)
COc1ccc(-c2cnc(C)o2)cc1S(=O)(=O)Nc1ccc(C)cc1C	4 µM
O=C(Nc1cccc(Cl)c1)N1CCCCC1c1cccnc1 (configuration not stated)	3.2 µM
Cc1cccc(NS(=O)(=O)c2cnc3sc(C)cn3c2=O)c1	> 50 µM (inactive)
O=C(NCCc1csc(-c2ccc(F)cc2)n1)c1cccs1	> 50 µM (inactive)
O=C(c1ccc(O)c(Cl)c1)N1CCN(c2cnccn2)CC1	0.32 µM
O=C(COc1nn(-c2ccccc2)c2ncccc12)NCc1ccccc1	0.4 µM
CN(Cc1nc2c(C(=O)N3CCN(Cc4ccccc4)CC3)cccc2[nH]1)C1CCCc2cccnc21 (configuration not stated)	5 µM

SMILES	IC50
CC(=O)Nc1nc(-c2cc(C)ccc2C)c(C)s1	> 50 µM (inactive)
Cc1ccc2c(c1)-c1onc(C(=O)N3CCCCC3c3cccnc3)c1CO2 (configuration not stated)	32 µM
CNS(=O)(=O)c1ccccc1Nc1nc(Nc2ccnn2C)ncc1Cl	0.2 µM
O=C(CSc1nnc2ccc(-c3ccc(F)cc3)nn12)N1CCCCC1	> 50 µM (inactive)
O=C(CCc1ccc(-c2ccccc2)o1)N1CCN(c2ccc(O)cc2)CC1	10 µM
Cc1ccc(C)c(OC2CCN(C(=O)C(C)n3ccnc3)CC2)c1 (configuration not stated)	2.5 µM
O=C(CSc1nnc(-c2ccc3c(c2)OCO3)o1)N(Cc1ccco1)CC(F)(F)F	16 µM
Cn1ccnc1CN1CCc2[nH]cnc2C1c1ccccc1OCc1ccccc1 (configuration not stated)	> 50 µM (inactive)
Cn1nc(C(=O)N2CCc3ccccc32)c2c1CCS(=O)(=O)C2	4 µM
Cc1ccc(-c2csc(NC(=O)C=Cc3ccc(S(=O)(=O)N4CCOCC4)cc3)n2)o1	6.3 µM
Cc1cccc(NS(=O)(=O)c2ccc3c(c2)C(=O)c2cc(S(=O)(=O)Nc4cccc(C)c4C)ccc2-3)c1C	> 50 µM (inactive)
Clc1cc(Br)ccc1OCCCCn1ccnc1	0.13 µM
Cc1ccc(NC(=O)c2ccc(Cl)c(NC(=O)c3ccc([N+](=O)[O-])cc3)c2)cc1	> 50 µM (inactive)
Cc1nc(N2CC(C)OC(C)C2)sc1C(=O)Nc1ccc2c(c1)OCO2 (configuration not stated)	6.3 µM
O=C(Nc1nc(-c2ccc(F)cc2)cs1)c1ccc([N+](=O)[O-])s1	0.63 µM
CC(c1cc(Cl)cc(Cl)c1)N(C)c1ncc2c(N)nc(N)nc2n1 (configuration not stated)	0.79 µM
CC(c1ccccn1)N(C)Cc1nc2ccccc2n1C(C)C (configuration not stated)	10 µM
O=S(=O)(NCC(c1cccnc1)N1CCN(c2ccc(F)cc2)CC1)c1cccs1 (configuration not stated)	> 50 µM (inactive)
O=S1N=C(NCCCN(Cc2ccc(F)cc2)c2ccccn2)C(NCc2ccncc2)=N1 (configuration not stated)	> 50 µM (inactive)
CC(=O)NCCNc1cc(-c2ccnc(Nc3cccc(Cl)c3)n2)ccn1	0.32 µM
COc1ccc(NS(=O)(=O)c2cc(NC(=O)Cc3ccc(C)cc3)ccc2N2CCOCC2)cc1	40 µM
CCC(=O)Nc1ccc(C(=O)Nc2ccccc2-c2ccccc2)cc1	10 µM

SMILES	IC50
CCN(Cc1ccncc1)Cc1ccc(NC(=O)c2cc(-c3ccc(F)cc3)n[nH]2)cc1	16 µM
COc1cc(-c2noc(CC#N)n2)ccc1OC(F)F	> 50 µM (inactive)
O=C(NCc1ccc(Cl)cc1)C1CN(C(=O)c2ccc(F)cc2)CCS1 (configuration not stated)	> 50 µM (inactive)
O=C(CN(Cc1ccccn1)Cc1ccccn1)NC1Cc2ccccc2C1	13 µM
Cc1ccc(NC(=O)c2ccnc(N3CCCC3)c2)cc1-c1cc(C(N)=O)ccc1C	25 µM
O=C(c1ccc(Cl)cc1)c1ccc(OC(=O)N2CCOCC2)cc1	6.3 µM
CC(C)Oc1ccc(C(=O)Nc2ccc(N3CCOCC3)c(Cl)c2)cc1	> 50 µM (inactive)
N#Cc1cccc(Cc2cc(Nc3cc(C4CC4)[nH]n3)nc(N3CC[C@H]3C(N)=O)n2)c1	0.63 µM
CCOc1ccc(Nc2ccc(S(=O)(=O)N3CCN(C)CC3)cc2[N+](=O)[O-])cc1OCC	0.79 µM
Cc1c(C(=O)NCCCCn2ccnc2)oc2c(C)cccc12	> 50 µM (inactive)
CCn1nccc1CN(C)C(=O)C=Cc1ccc(Cl)cc1	16 µM
O=C(Nc1nc(-c2ccccn2)cs1)N1C[C@H]2C[C@@]2(c2ccccc2)C1	2 µM
Cc1cc(Oc2cc(Cl)c(Cl)cc2Cl)n2ncnc2n1	16 µM
Cc1cc2nc(CN(C)Cc3ncccc3C)[nH]c2cc1C	5 µM
COc1cccc(-c2c(C)nn(-c3nc(N)nc(-c4ccccn4)n3)c2N)c1	5 µM
N#Cc1ccc(S(=O)(=O)N2CCN(Cc3cccc(-c4ccncc4)c3)CC2)cc1	> 50 µM (inactive)
Cc1cc2ncn(-c3ccc([N+](=O)[O-])cc3C#N)c2cc1C	> 50 µM (inactive)
Cc1nn(C)c(Cl)c1CN(Cc1cccnc1)Cc1ccsc1	2 µM
O=C(c1ccc(OCCCc2cnc[nH]2)cc1)C1CC1	> 50 µM (inactive)
CC(C)c1cc(Nc2cc(Cc3ccccc3)nc(NC3CCC(O)CC3)n2)n[nH]1 (configuration not stated)	3.2 µM
CCOc1ccc(CC(=O)N2c3ccccc3CC2C(=O)NC)cc1 (configuration not stated)	> 50 µM (inactive)
O=C1CN(C2CCCc3c(OCc4ccncc4)cccc32)C(=O)N1C1CCCCC1 (configuration not stated)	> 50 µM (inactive)

SMILES	IC50
Cc1cccc(Nc2nc(-c3ccccn3)cs2)n1	4 µM
O=C(NC(CO)c1ccc(F)cc1)c1ccc(-c2c[nH]c3ncccc23)s1 (configuration not stated)	32 µM
CN1C(=O)c2ccccc2Sc2ccc(NC(=O)NCc3ccco3)cc21	> 50 µM (inactive)
CC(C)Nc1nc(Cl)nc2ccccc12	20 µM
O=C(NC1C(=O)N(c2ccccc2)C1c1cccnc1)c1ccc(Cl)s1 (configuration not stated)	1 µM
COc1ccc(S(=O)(=O)Nc2ccc(C(=O)Nc3nc(-c4ccccn4)cs3)cc2)cc1	1 µM
COc1ccnc2[nH]cc(-c3cc(C(=O)N[C@H](CO)c4ccccc4)co3)c12	25 µM
C=CCn1nc([N+](=O)[O-])nc1Oc1ccc(Cl)cc1Cl	> 50 µM (inactive)
Cc1nc2c(-c3ncn[nH]3)cc(NC(=O)Cc3ccccc3)cn2c1C	0.79 µM
O=C(Nc1nc2cc(Cl)ccc2o1)c1cccc(Cl)c1	0.4 µM
COc1ccc(-c2ccc3nnc(-c4ccc(O)c(OC)c4)n3c2)cn1	4 µM
COc1ccc(Nc2nc(-c3ccccn3)cc(N3CCCC(O)C3)n2)cc1 (configuration not stated)	2.5 µM
CCCN1CCN(Cc2ccc(S(=O)(=O)Nc3cccc(C)c3)cc2)CC1	25 µM
COc1ccc(-c2nc3ccncc3c(=O)n2CCOc2ccccc2)cc1	40 µM
N#Cc1nc(C=Cc2ccccc2)oc1NCc1cccnc1	25 µM
Clc1ccc(CN2CCN(C3=NCCN3)CC2)cc1Cl	> 50 µM (inactive)
COc1cccc(CN(C)Cc2nc(N)c3c(C)c(C)sc3n2)c1	32 µM
CC(C)c1cc(C(=O)N2CCCC(c3cc4ncccc4[nH]3)C2)on1 (configuration not stated)	> 50 µM (inactive)
CCCn1c(NC(=O)Cc2ccc(Cl)cc2)nc2ccccc21	40 µM
